Experimental data as given in paper PMC9959130, “Effects of Side Chain and Peptide Bond Modifications on the Targeting Properties of Stabilized Minigastrin Analogs” (Pharmaceuticals, 2023).
Where two headings read alike, the source gives them in different places. Where a SMILES comes first, the peptide text is derived from it. [ ]: non-standard residue; d: D form. The star is where a group is joined. DOTA = O=C(O)CN1CCN(CC(=O)O)CCN(CC(=O)*)CCN(CC(=O)O)CC1; 1Nal = N[C@@H](Cc1cccc2ccccc12)C(=O)O; NMeNle = CCCC[C@H](NC)C(=O)O

Assays:
[1] = molecular target: T1, human CCK2R (Homo sapiens, UniProt P32239); assay: Competitive binding assay against [125I][3-iodo-Tyr12,Leu15]gastrin-I on A431-CCK2R cells; settings: unlabeled peptide, 1 h at RT, radioligand [125I][3-iodo-Tyr12,Leu15]gastrin-I, mean ± sd of three independent experiments in triplicates
T1 construct: expressed in transfected cells; host or cells: A431 human epidermoid carcinoma cells, stably transfected (A431-CCK2R); originally provided by Dr. Luigi Aloj
T1 sequence (P32239 1-447): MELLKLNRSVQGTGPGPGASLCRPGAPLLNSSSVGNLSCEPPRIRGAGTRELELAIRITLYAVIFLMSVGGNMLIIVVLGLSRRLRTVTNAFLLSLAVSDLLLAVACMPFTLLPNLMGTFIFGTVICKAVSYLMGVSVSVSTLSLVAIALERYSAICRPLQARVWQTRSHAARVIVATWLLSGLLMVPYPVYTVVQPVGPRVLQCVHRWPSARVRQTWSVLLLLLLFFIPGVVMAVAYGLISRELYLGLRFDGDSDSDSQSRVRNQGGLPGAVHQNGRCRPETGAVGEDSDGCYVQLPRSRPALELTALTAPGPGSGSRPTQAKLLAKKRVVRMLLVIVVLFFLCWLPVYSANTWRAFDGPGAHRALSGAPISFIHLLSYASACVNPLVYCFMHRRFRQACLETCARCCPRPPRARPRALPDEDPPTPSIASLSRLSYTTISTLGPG
Source text: (§1) A431 human epidermoid carcinoma cells overexpressing human CCK2R through stable transfection (A431-CCK2R) and the same cell line transfected with the empty vector (A431-mock) were used for cell assays. The cells are constantly available in our laboratory and were originally provided by Dr. Luigi Aloj. All cell culture media and reagents were obtained from Invitrogen Corporation (Lofer, Austria) or Sigma-Aldrich (Darmstadt, Germany). Dulbecco’s modified Eagle’s medium (DMEM) supplemented with 10% (v/v) fetal bovine serum and 1% of 100x penicillin−streptomycin−glutamine was used for cell culture. The cells were passaged three times per week using a 10x 2.5% trypsin-EDTA solution in a 1:2–1:3 ratio.
Receptor affinity studies of the DOTA-conjugates for the CCK2R was competitively evaluated against [^125I][3-iodo-Tyr^12,Leu^15]gastrin-I. The binding assays were performed in 96-well filter plates (MultiScreenHTS-FB, Merck Group, Darmstadt, Germany) as previously described. A431-CCK2R cells (200,000–400,000/well) were incubated for 1 h at RT with the peptides (concentration range of 0.01–1000 nM) and [^125I][3-iodo-Tyr^12,Leu^15]gastrin-I (~25,000 cpm). The incubation was arrested by filtering the medium by vacuum and rinsing twice rapidly with ice-cold binding assay buffer (10 mM TRIS/139 mM NaCl, pH 7.3). The filters were removed from the plate, transferred into 4.5 mL tubes and measured in the γ-counter. Data were normalized from 0 to 100 for graphical representation of exemplary binding curves. Origin software (Microcal Origin 6.1, Northampton, MA, USA) was used to calculate the half maximal inhibitory concentration (IC50) values by nonlinear regression and expressed as mean ± sd for three independent experiments performed in triplicates. An additional cell uptake study at 2 h after incubation was performed for DOTA-[(N-Me)1Nal^8]MGS5 radiolabeled with gallium-68 and lutetium-177 (see Figure S4 of the Supplementary Materials).

[2] = molecular target: T1, human CCK2R; assay: Calcium mobilization assay (fluo-4 AM) on A431-CCK2R cells; type: cell-based; settings: normalized to 10^−6 M pentagastrin, mean ± SEM of at least three independent experiments in triplicates
Source text: as §1
Analog-induced receptor activation was evaluated by a calcium mobilization assay using the calcium-sensitive dye fluo-4 AM (ThermoFisher Scientific, Montigny-Le-Bretonneux, France), as previously described. Briefly, A431-CCK2R cells were seeded (60,000/well) in flat clear bottom black 96-well plates (Corning, Bagneaux-sur-Loing, France) coated with poly-L-ornithine (100 µg/mL, 1 h, 37 °C) (Sigma Aldrich, Saint Quentin Fallavier, France). Cytosolic Ca^2+ variations were measured before and after application of 50 µL of graded concentrations of the investigated peptides in the vicinity of the cells, and the effects on Ca^2+ mobilization were measured. Data were background corrected and normalized for the amplitudes caused by the medium alone (0%, no self-effect) or 10^−6 M pentagastrin (100%, maximal Ca^2+ mobilization response). Prism 4.0 software was used to calculate the EC50 values and the results were expressed as mean ± SEM for at least three independent experiments performed in triplicates.

[3] = Distribution coefficient (LogD) in octanol/PBS; type: physicochemical; settings: radiolabeled peptide (111In-labeled where the label names no radiometal), shake-flask octanol/PBS, 100 pmol/mL, 15 min shaking at 1500 rpm, γ-counter, mean ± SD, n = 8
Experimental: The distribution coefficient (LogD) in octanol/PBS was determined by mixing 0.5 mL of the radiolabeled DOTA peptides diluted in PBS (100 pmol/mL) and 0.5 mL octanol in a 1.5 mL microcentrifuge tube (n = 8). After shaking for 15 min (MS3 Basic, IKA, Staufen, Germany) at 1500 rpm and a waiting time of 10 min to ensure appropriate separation of the two phases, 100 µL aliquots of each phase were pipetted into 4.5 mL tubes. The tubes were measured using a γ-counter (2480 Wizard2 3″, PerkinElmer Life Sciences and Analytical Instruments, formerly Wallac Oy, Turku, Finland) and the LogD value was determined using following equation: LogD=Log(cpmoctanol phase/cpmPBS phase)

[4] = Binding to serum proteins (incubation in human serum, Sephadex G-50 size exclusion chromatography); type: in vitro ADME; settings: 37 °C; for Binding to Serum Proteins (%): 500 pmol/mL
Experimental: Protein binding was determined by incubation of the radiolabeled peptides in human serum at 37 °C (500 pmol/mL, n = 2). For the time points of 1, 4, and 24 h after incubation, samples of 25 µL were subjected to Sephadex G-50 size exclusion chromatography (GE Healthcare Illustra, Little Chalfont, UK). The column and the eluate were measured using the γ-counter and the percentage of protein binding was calculated.

[5] = In vitro stability in human serum (intact radiopeptide by radio-HPLC); type: in vitro ADME; settings: fresh human serum, 37 °C, n = 2; for Intact Radiopeptide in Human Serum (%): 1000 pmol/mL
Experimental: In vitro stability studies were performed in human serum (n = 2). The radiolabeled peptides (1000 pmol/mL) were incubated at 37 °C and a sample of 100 μL was taken at 1, 4, and 24 h after incubation. After the precipitation of proteins with ACN at 1:1.5 (v/v), centrifugation (14,000 rpm, 2 min, centrifuge 5424, Eppendorf AG, Germany) and dilution with water at 1:1 (v/v), an aliquot of 100 μL of this solution was analyzed by HPLC. Radioligand breakdown was monitored and the percentage of intact radiopeptide was calculated using Chromeleon Dionex Software (Version 7.2.9.11323). Additionally, the radiolabeled peptides (1000 pmol/mL) were incubated in PBS (n = 1) at room temperature to confirm the complex stability as a control.

[6] = radiolabeled peptide (111In where no radiometal named), 24 h after incubation, Sephadex G-50, γ-counter, n = 2
[7] = radiolabeled peptide (111In where no radiometal named), 24 h after incubation

| Compound | IC50 [1] [nM] | EC50 [2] [nM] | LogD [3] | Binding to Serum Proteins (%) [4, 6] [%] | Intact Radiopeptide in Human Serum (%) [5, 7] [%] | also measured |
| --- | --- | --- | --- | --- | --- | --- |
| CCCC[C@@H](C(=O)N[C@@H](CC(=O)O)C(=O)N[C@@H](Cc1cccc2ccccc12)C(=O)NC)N(C)C(=O)[C@H](Cc1c[nH]c2ccccc12)NC(=O)CNC(=O)[C@H](Cc1ccc(O)cc1)NC(=O)[C@H](C)NC(=O)[C@@H](CCC(=O)O)NC(=O)CN1CCN(CC(=O)O)CCN(CC(=O)O)CCN(CC(=O)O)CC1 [DOTA-MGS5[NHCH3]] | 13.2 ± 1.5 | 41 ± 14.7 | – | – | – | – |
| CCCC[C@@H](C(=O)N[C@@H](CC(=O)O)C(=O)N[C@@H](Cc1ccc2ccccc2c1)C(N)=O)N(C)C(=O)[C@H](Cc1c[nH]c2ccccc12)NC(=O)CNC(=O)[C@H](Cc1ccc(O)cc1)NC(=O)[C@H](C)NC(=O)[C@@H](CCC(=O)O)NC(=O)CN1CCN(CC(=O)O)CCN(CC(=O)O)CCN(CC(=O)O)CC1 [DOTA-[2Nal^8]MGS5] [listing 1 of 2 here] | 1.7 ± 0.1 | 12.8 ± 2.4 | – | – | – | – |
| CCCC[C@@H](C(=O)N[C@@H](CC(=O)O)C(=O)N[C@@H](Cc1ccc2ccccc2c1)C(N)=O)N(C)C(=O)[C@H](Cc1c[nH]c2ccccc12)NC(=O)CNC(=O)[C@H](Cc1ccc(O)cc1)NC(=O)[C@H](C)NC(=O)[C@@H](CCC(=O)O)NC(=O)CN1CCN(CC(=O)O)CCN(CC(=O)O)CCN(CC(=O)O)CC1 [DOTA-[2Nal^8]MGS5] [listing 2 of 2 here] | – | – | −1.7 ± 0.2 | 34.6 ± 0.3 | 92.0 ± 1.2 | – |
| CCCC[C@@H](C(=O)N[C@@H](CC(=O)O)C(=O)N(C)[C@@H](Cc1cccc2ccccc12)C(N)=O)N(C)C(=O)[C@H](Cc1c[nH]c2ccccc12)NC(=O)CNC(=O)[C@H](Cc1ccc(O)cc1)NC(=O)[C@H](C)NC(=O)[C@@H](CCC(=O)O)NC(=O)CN1CCN(CC(=O)O)CCN(CC(=O)O)CCN(CC(=O)O)CC1 [DOTA-[(N-Me)1Nal^8]MGS5] [listing 1 of 2 here] | 2.7 ± 0.3 | 63.4 ± 19.9 | – | – | – | – |
| CCCC[C@@H](C(=O)N[C@@H](CC(=O)O)C(=O)N(C)[C@@H](Cc1cccc2ccccc12)C(N)=O)N(C)C(=O)[C@H](Cc1c[nH]c2ccccc12)NC(=O)CNC(=O)[C@H](Cc1ccc(O)cc1)NC(=O)[C@H](C)NC(=O)[C@@H](CCC(=O)O)NC(=O)CN1CCN(CC(=O)O)CCN(CC(=O)O)CCN(CC(=O)O)CC1 [DOTA-[(N-Me)1Nal^8]MGS5] [listing 2 of 2 here] | – | – | −2.4 ± 0.3 | 39.8 ± 4.2 | 99.6 ± 0.1 | – |
| CCCC[C@@H](C(=O)N[C@@H](CC(=O)O)C(=O)N[C@@H](Cc1cccc2ccccc12)C(N)=O)N(C)C(=O)[C@H](Cc1c[nH]c2ccccc12)NC(=O)CNC(=O)[C@H](Cc1ccc(O)cc1)NC(=O)[C@H](C)NC(=O)[C@@H](CCCCN)NC(=O)CN1CCN(CC(=O)O)CCN(CC(=O)O)CCN(CC(=O)O)CC1 [DOTA-[DLys^1]MGS5] ({DOTA}-[dK]AYGW[NMeNle]D[1Nal]-NH2) [listing 1 of 2 here] | 0.9 ± 0.8 | 43.5 ± 14.1 | – | – | – | – |
| CCCC[C@@H](C(=O)N[C@@H](CC(=O)O)C(=O)N[C@@H](Cc1cccc2ccccc12)C(N)=O)N(C)C(=O)[C@H](Cc1c[nH]c2ccccc12)NC(=O)CNC(=O)[C@H](Cc1ccc(O)cc1)NC(=O)[C@H](C)NC(=O)[C@@H](CCCCN)NC(=O)CN1CCN(CC(=O)O)CCN(CC(=O)O)CCN(CC(=O)O)CC1 [DOTA-[DLys^1]MGS5] ({DOTA}-[dK]AYGW[NMeNle]D[1Nal]-NH2) [listing 2 of 2 here] | – | – | −1.3 ± 0.1 | 27.8 ± 0.4 | 98.1 ± 1.1 | – |
| CCCC[C@@H](C(=O)N[C@@H](CC(=O)O)C(=O)N[C@@H](Cc1ccccc1)C(N)=O)N(C)C(=O)[C@H](Cc1c[nH]c2ccccc12)NC(=O)CNC(=O)[C@H](Cc1ccc(O)cc1)NC(=O)[C@H](C)NC(=O)[C@@H](CCC(=O)O)NC(=O)CN1CCN(CC(=O)O)CCN(CC(=O)O)CCN(CC(=O)O)CC1 [DOTA-[Phe^8]MGS5] ({DOTA}-[dE]AYGW[NMeNle]DF-NH2) [listing 1 of 2 here] | 0.7 ± 0.1 | 6.3 ± 3.6 | – | – | – | – |
| CCCC[C@@H](C(=O)N[C@@H](CC(=O)O)C(=O)N[C@@H](Cc1ccccc1)C(N)=O)N(C)C(=O)[C@H](Cc1c[nH]c2ccccc12)NC(=O)CNC(=O)[C@H](Cc1ccc(O)cc1)NC(=O)[C@H](C)NC(=O)[C@@H](CCC(=O)O)NC(=O)CN1CCN(CC(=O)O)CCN(CC(=O)O)CCN(CC(=O)O)CC1 [DOTA-[Phe^8]MGS5] ({DOTA}-[dE]AYGW[NMeNle]DF-NH2) [listing 2 of 2 here] | – | – | −3.2 ± 0.1 | 20.2 ± 1.6 | 54.0 ± 0.8 | – |
| CCCC[C@@H](C(=O)N[C@@H](CC(=O)O)C(=O)N[C@@H](Cc1ccccc1)C(N)=O)N(C)C(=O)[C@H](Cc1c[nH]c2ccccc12)NC(=O)CNC(=O)[C@H](Cc1ccc(O)cc1)NC(=O)[C@H](C)NC(=O)[C@@H](CCC(=O)O)NC(=O)CN1CCN(CC(=O)O)CCN(CC(=O)O)CCN(CC(=O)O)CC1 [[^111In]In-DOTA-[Phe^8]MGS5, metal not drawn] ({DOTA}-[dE]AYGW[NMeNle]DF-NH2) | – | – | – | – | – | LogD ([3]; read-out: LogD): -3.19 ± 0.06; fraction unbound at 1 h, 500 pmol/mL ([4]; human, radiolabeled peptide, 1 h after incubation, Sephadex G-50, n = 2): 0.919; fraction unbound at 4 h, 500 pmol/mL ([4]; human, radiolabeled peptide, 4 h after incubation, Sephadex G-50, n = 2): 0.882; fraction unbound at 24 h, 500 pmol/mL [4, 6]: 0.798; remaining at 1 h, 1000 pmol/mL ([5]; human, radiolabeled peptide, 1 h after incubation): 99.5 ± 0.7%; remaining at 4 h, 1000 pmol/mL ([5]; human, radiolabeled peptide, 4 h after incubation): 92.5 ± 0.7%; remaining at 24 h, 1000 pmol/mL [5, 7]: 54 ± 0.8% |
